Reference: patent US8410097B2 (priority 2005, dated 2013)
Like-named read-outs stand apart in the source and are kept apart here.

Legend:
[1] = target: CB2 cannabinoid receptor (Mus musculus, UniProt P47936); assay: biochemical; assay type: binding; details: mouse spleen membranes
Procedure: Some of the inventive analogs were tested for CB2 receptor binding affinity and for CB1 receptor affinity (to determine selectivity). […] The lower the Ki value the higher the binding affinity.
(§1) The treated membranes were subsequently used in the binding assay described below. Approximately 30 μg of membranes were incubated in silanized 96-well microtiter plate with TME containing 0.1% essentially fatty acid-free bovine serum albumin (BSA), 0.8 nM [^3H] […] Radioactivity was detected using MicroScint 20 scintillation cocktail added directly to the dried filterplates, and the filterplates were counted using a Packard Instruments Top-Count. […] Data collected from three independent experiments performed with duplicate determinations was normalized between 100% and 0% specific binding for [^3H] […] The normalized data was analyzed using a 4-parameter nonlinear logistic equation to yield IC50 values.
Silanized centrifuge tubes were used throughout to minimize receptor loss due to adsorption. The CB2 binding assay was conducted in the same manner as for the CB1 binding assay. The binding affinities (Ki) were also expressed in nanomoles (nM).

[2] = target: T1, CB1 cannabinoid receptor (Rattus norvegicus, UniProt P20272); assay: biochemical; assay type: binding; details: for Ki: rat forebrain membranes
T1 construct: membranes were prepared from rat forebrain membranes; from tissue; host or cells: rat forebrain membranes
Procedure: Some of the inventive analogs were tested for CB2 receptor binding affinity and for CB1 receptor affinity (to determine selectivity). […] The lower the Ki value the higher the binding affinity. […]
Membranes, previously frozen at −80° C., were thawed on ice. To the stirred suspension was added three volumes of TME (25 mM Tris-HCl buffer, 5 mM MgCl2 and 1 mM EDTA) at a pH 7.4. The suspension was incubated at 4° C. for 30 min. At the end of the incubation, the membranes were pelleted and washed three times with TME.
as §1

[3] = Table 6, [3H] CP-55,940, read-out: CB2 Ki
[4] = CB1 Ki, Table 6, 0.8 nM [3H] CP-55,940
[5] = CB2 Ki, Table 6, [3H] CP-55,940
[6] = Table 6, 0.8 nM [3H] CP-55,940, read-out: CB1 Ki
[7] = Table 7, [3H] CP-55,940, read-out: CB2 Ki
[8] = CB1 Ki, Table 7, 0.8 nM [3H] CP-55,940

CB2 cannabinoid receptor, sequence (P47936 whole entry): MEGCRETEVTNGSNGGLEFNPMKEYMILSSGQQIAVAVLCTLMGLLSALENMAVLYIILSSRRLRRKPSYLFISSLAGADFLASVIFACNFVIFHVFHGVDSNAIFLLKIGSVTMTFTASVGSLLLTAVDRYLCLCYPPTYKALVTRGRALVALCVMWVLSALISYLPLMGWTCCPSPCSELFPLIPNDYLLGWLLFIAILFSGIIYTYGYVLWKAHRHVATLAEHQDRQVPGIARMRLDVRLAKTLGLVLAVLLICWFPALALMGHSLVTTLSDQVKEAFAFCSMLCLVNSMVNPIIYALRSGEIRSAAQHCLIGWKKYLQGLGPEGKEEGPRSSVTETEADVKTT
T1 sequence (P20272 whole entry): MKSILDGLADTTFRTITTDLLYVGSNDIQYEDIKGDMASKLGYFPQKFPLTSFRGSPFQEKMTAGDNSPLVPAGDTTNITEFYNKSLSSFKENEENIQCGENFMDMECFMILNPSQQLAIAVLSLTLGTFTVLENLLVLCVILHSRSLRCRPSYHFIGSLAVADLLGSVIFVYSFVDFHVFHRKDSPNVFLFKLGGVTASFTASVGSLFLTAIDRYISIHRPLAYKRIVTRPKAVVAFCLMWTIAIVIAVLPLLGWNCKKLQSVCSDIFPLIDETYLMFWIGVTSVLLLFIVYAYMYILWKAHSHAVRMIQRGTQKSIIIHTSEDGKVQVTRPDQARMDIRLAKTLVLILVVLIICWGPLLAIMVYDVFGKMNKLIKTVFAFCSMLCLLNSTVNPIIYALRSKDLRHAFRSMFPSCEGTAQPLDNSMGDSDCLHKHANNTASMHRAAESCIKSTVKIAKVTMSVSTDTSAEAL

Row | SMILES | Ki [1, 3] [nM] | Ki [2, 4] [nM] | also measured
1 | Cc1cc(Br)ccc1-n1c(-c2ccc(Cl)cc2Cl)nc(C(=O)NN2CCCCC2)c1C [Compound 1-1] | 808 | 29.8 | –
2 | Cc1c(C(=O)NN2CCCCC2)nc(-c2ccc(Cl)cc2Cl)n1-c1ccc(Br)cc1 [Compound 1-2] | – | 11.5 | Ki [1, 5]: 462 nM
3 | Cc1cc(Br)ccc1-n1c(-c2ccc(Cl)cc2Cl)nc(C(=O)NN2CCCCC2)c1CO [Compound 1-3] | 803 | 54.7 | –
4 | O=C(NN1CCCCC1)c1nc(-c2ccc(Cl)cc2Cl)n(-c2ccc(Br)cc2)c1CO [Compound 1-4] | – | 10.8 | Ki [1, 5]: 319 nM
5 | CN(C(=O)c1nc(-c2ccc(Cl)cc2Cl)n(-c2ccc(Br)cc2)c1CO)C1CCCCC1 [Compound 1-5] | 3780 | 28.8 | –
6 | Cc1c(C(=O)NN2CCCCC2)nc(-c2ccc(Cl)cc2Cl)n1-c1ccc(I)cc1 [Compound 1-6] | 4310 | 2.7 | –
7 | O=C(NN1CCCCC1)c1nc(-c2ccc(Cl)cc2Cl)n(-c2ccc(I)cc2)c1CO [Compound 1-7] | 1650 | 1.5 | –
8 | Cc1c(C(=O)NN2CCCCC2)nc(-c2ccc(Cl)cc2Cl)n1-c1ccc(C#N)cc1 [Compound 1-8] | 7220 | 57 | –
9 | N#Cc1ccc(-n2c(-c3ccc(Cl)cc3Cl)nc(C(=O)NN3CCCCC3)c2CO)cc1 [Compound 1-9] | 5460 | 51 | –
10 | O=C(NC1CCCCC1)c1nc(-c2ccc(Cl)cc2Cl)n(-c2ccc(Br)cc2)c1CO [Compound 1-10] | 3030 | 4.6 | –
11 | CN(C(=O)c1nc(-c2ccc(Cl)cc2Cl)n(-c2ccc(I)cc2)c1CO)C1CCCCC1 [Compound 1-11] | 1150 | 6.4 | –
12 | O=C(NC1CCCCC1)c1nc(-c2ccc(Cl)cc2Cl)n(-c2ccc(I)cc2)c1CO [Compound 1-12] | 22400 | 19 | –
13 | Cc1c(C(=O)N2CCCCC2)nc(-c2ccc(Cl)cc2Cl)n1-c1ccc(Br)cc1 [Compound 1-13] | 2450 | 22 | –
14 | Cc1c(C(=O)NN2CCCCC2)nc(-c2ccc(Cl)cc2Cl)n1-c1ccc(-c2cccnc2)cc1 [Compound 1-14] | 3330 | 39.8 | –
15 | O=C(NN1CCCCC1)c1nc(-c2ccc(Cl)cc2Cl)n(-c2ccc(-c3cccnc3)cc2)c1CO [Compound 1-15] | 2780 | 23 | –
16 | Cc1c(C(=O)NN2CCCCC2)nc(-c2ccc(Cl)cc2Cl)n1-c1ccc(-c2nnn[nH]2)cc1 [Compound 1-16] | 10700 | – | Ki [2, 6]: 404 nM
17 | Cc1c(C(=O)NN2CCCCC2)nc(-c2ccc(Cl)cc2Cl)n1-c1ccc(-c2nnnn2C)cc1 [Compound 1-17] | 24500 | – | Ki [2, 6]: 2290 nM
18 | Cc1c(C(=O)NN2CCCCC2)nc(-c2ccc(Cl)cc2Cl)n1-c1ccc(-c2nnn(C)n2)cc1 [Compound 1-18] | 5080 | 6.5 | –
19 | O=C(NN1CCCCC1)c1nc(-c2ccc(Cl)cc2Cl)n(-c2ccc(-c3nnn[nH]3)cc2)c1CO [Compound 1-19] | 22300 | – | Ki [2, 6]: 5760 nM
20 | Cn1nnnc1-c1ccc(-n2c(-c3ccc(Cl)cc3Cl)nc(C(=O)NN3CCCCC3)c2CO)cc1 [Compound 1-20] | 12300 | – | Ki [2, 6]: 400 nM
21 | Cn1nnc(-c2ccc(-n3c(-c4ccc(Cl)cc4Cl)nc(C(=O)NN4CCCCC4)c3CO)cc2)n1 [Compound 1-21] | 539 | 10.5 | –
22 | Cc1c(C(=O)N(C)C2CCCCC2)nc(-c2ccc(Cl)cc2Cl)n1-c1ccc(-c2nnn[nH]2)cc1 [Compound 1-22] | 26300 | – | Ki [2, 6]: 359 nM
23 | Cc1c(C(=O)N(C)C2CCCCC2)nc(-c2ccc(Cl)cc2Cl)n1-c1ccc(-c2nnnn2C)cc1 [Compound 1-23] | – | 982 | Ki [1, 5]: 4150 nM

Row | SMILES | Ki [1, 3] [nM] | Ki [2, 4] [nM] | also measured
24 | Cc1c(C(=O)N(C)C2CCCCC2)nc(-c2ccc(Cl)cc2Cl)n1-c1ccc(-c2nnn(C)n2)cc1 [Compound 1-24] | 220 | 11.2 | –
25 | CN(C(=O)c1nc(-c2ccc(Cl)cc2Cl)n(-c2ccc(-c3nnn[nH]3)cc2)c1CO)C1CCCCC1 [Compound 1-25] | 858 | – | Ki [2, 6]: 5210 nM
26 | CN(C(=O)c1nc(-c2ccc(Cl)cc2Cl)n(-c2ccc(-c3nnnn3C)cc2)c1CO)C1CCCCC1 [Compound 1-26] | 1320 | – | Ki [2, 6]: 101 nM
27 | CN(C(=O)c1nc(-c2ccc(Cl)cc2Cl)n(-c2ccc(-c3nnn(C)n3)cc2)c1CO)C1CCCCC1 [Compound 1-27] | 620 | 19 | –
28 | Cc1c(C(=O)NN2CCCCC2)nc(-c2ccc(Cl)cc2Cl)n1-c1ccc(-c2nccs2)cc1 [Compound 1-28] | 656 | 7.7 | –
29 | N=C(S)c1ccc(-n2c(-c3ccc(Cl)cc3Cl)nc(C(=O)NN3CCCCC3)c2CO)cc1 [Compound 1-29] | 640 | 47.6 | –
30 | O=C(NN1CCCCC1)c1nc(-c2ccc(Cl)cc2Cl)n(-c2ccc(-c3nccs3)cc2)c1CO [Compound 1-30] | 1510 | 23.9 | –
31 | Cc1c(C(=O)NN2CCCCC2)nc(-c2ccc(Cl)cc2Cl)n1-c1ccc(C#CCO)cc1 [Compound 1-31] | 1140 | 18 | –
32 | Cc1c(C(=O)NN2CCCCC2)nc(-c2ccc(Cl)cc2Cl)n1-c1ccc(C#CCCO)cc1 [Compound 1-32] | 5090 | 6.2 | –
33 | Cc1c(C(=O)NN2CCCCC2)nc(-c2ccc(Cl)cc2Cl)n1-c1ccc(C#CCCC#N)cc1 [Compound 1-33] | 271 | 1.6 | –
34 | O=C(NN1CCCCC1)c1nc(-c2ccc(Cl)cc2Cl)n(-c2ccc(C#CCO)cc2)c1CO [Compound 1-34] | – | 23.2 | Ki [1, 5]: 5360 nM
35 | Cc1c(NC(=O)NC2CCCCC2)nc(-c2ccc(Cl)cc2Cl)n1-c1ccc(Br)cc1 [Compound 1-35] | – | 6.9 | Ki [1, 5]: 20500 nM
36 | Cc1c(NC(=O)NC2CCCCC2)nc(-c2ccc(Cl)cc2Cl)n1-c1ccc(I)cc1 [Compound 1-36] | 7240 | 1.2 | –
37 | Cc1c(NC(=O)N(C)C2CCCCC2)nc(-c2ccc(Cl)cc2Cl)n1-c1ccc(Br)cc1 [Compound 1-37] | 1420 | 14.2 | –
38 | O=C(Nc1nc(-c2ccc(Cl)cc2Cl)n(-c2ccc(I)cc2)c1CBr)NC1CCCCC1 [Compound 1-38] | 75.3 | 5 | –
39 | O=C(Nc1nc(-c2ccc(Cl)cc2Cl)n(-c2ccc(I)cc2)c1CO)NC1CCCCC1 [Compound 1-39] | 1340 | 6.8 | –
40 | CN(C(=O)Nc1nc(-c2ccc(Cl)cc2Cl)n(-c2ccc(Br)cc2)c1CO)C1CCCCC1 [Compound 1-40] | 1020 | 10 | –
41 | [N-]=[N+]=NCc1c(C(=O)NN2CCCCC2)nc(-c2ccc(Cl)cc2Cl)n1-c1ccc(Br)cc1 [Compound 1-41] | 954 | 7 | –
42 | Cc1c(C(=O)NN2CCCCC2)nn(-c2ccc(Cl)cc2Cl)c1-c1ccc(C#CCO)cc1 [Compound 2-1, 1-(2,4-Dichloro-phenyl)-5-[4-(3-hydroxy-prop-1-ynyl)-phenyl]-4-methyl-1H-pyrazole-3-carboxylic acid piperidin-1-ylamide] | – | – | Ki [1, 7]: 1490 nM; Ki [2, 8]: 33.1 nM
43 | Cc1c(C(=O)NN2CCCCC2)nn(-c2ccc(Cl)cc2Cl)c1-c1ccc(C#CCCO)cc1 [Compound 2-2] | – | – | Ki [1, 7]: 441 nM; Ki [2, 8]: 19.7 nM
44 | Cc1c(C(=O)NN2CCCCC2)nn(-c2ccc(Cl)cc2Cl)c1-c1ccc(C#CCCC#N)cc1 [Compound 2-3] | – | – | Ki [1, 7]: 127 nM; Ki [2, 8]: 0.35 nM
45 | N#CCCC#Cc1ccc(-c2c(CO)c(C(=O)NN3CCCCC3)nn2-c2ccc(Cl)cc2Cl)cc1 [Compound 3-1] | – | – | Ki ([1]; Table 8, read-out: Receptor Affinities Ki (nM) CB2): 265 nM; Ki ([2]; Receptor Affinities Ki (nM) CB1, Table 8): 6 nM; Selectivity CB1 ([2]; Table 8, CB1 over CB2 binding selectivity (ratio of Ki)): 44
